Experimental data published in US20110280849A1, “TUMOR SUPPRESSION USING HUMAN PLACENTA-DERIVED INTERMEDIATE NATURAL KILLER CELLS AND IMMUNOMODULATORY COMPOUNDS” (Anthrogenesis Corporation, priority 2010, published 2011).

What was measured:
[1] = tested on: NK cells; assay: Flow cytometry of GZMB-positive NK cells after pomalidomide; assay type: cell-based, human
[2] = tested on: cultured PINK cells; assay: qRT-PCR gene expression in lenalidomide- or pomalidomide-treated cultured PINK cells
Text: Quantitative real-time (qRT-PCR) analysis. Isolated RNA can then be used for cDNA synthesis using TAQMAN® Reverse Transcription Reagents (Applied Biosystems, Cat #N8080234) followed by real-time PCR analysis by the 7900HT Fast Real-Time PCR System using Human Immune Array (Applied Biosystems, Cat #4370573) and Human MicroRNA Array (Applied Biosystems, Cat #4384792).
The paired t-test is used to determine if fold changes are equal in lenalidomide-treated and -untreated samples. […] The paired t-test is used to determine if fold changes are equal in treated and untreated samples.

**Q.** Which results are given for Nc1cccc2c1C(=O)N(C1CCC(=O)NC1=O)C2=O (racemic) [pomalidomide, 4-amino-2-[(3RS)-2,6-dioxopiperidin-3-yl)-1H-isoindole-1,3(2H)-dione]?
**A.** increase in percentage of GZMB-positive NK cells [1]: 25%; increase in granzyme B (GZMB) gene expression [2]: 60%±1.7%
